Assay results reported in ChEMBL document CHEMBL3352654, “Synthesis, biological evaluation and SAR analysis of O-alkylated analogs of quercetin for anticancer” (Bioorg Med Chem Lett, 2014).

How the values were obtained:
Format in all cases: functional, cell-based
NCI-H1792 = test: Anticancer activity against human NCI-H1792 cells by HTS assay
[1] = Anticancer activity against human M4E cells by HTS assay
M14 = test: Anticancer activity against human M14 cells by HTS assay
[2] = Anticancer activity against human […] cells by HTS assay
[3] = Anticancer activity against human SKBR cells by HTS assay
HeLa = test: Anticancer activity against human HeLa cells by HTS assay
[4] = Anticancer activity against human H1299 cells by HTS assay; conditions: NCI-H1299
NCI-H157 = test: Anticancer activity against human NCI-H157 cells by HTS assay
[5] = Anticancer activity against human LOXIMVI cells by HTS assay; conditions: LOX IMVI
[6] = Anticancer activity against human NCI-H1944 cells by HTS assay
NCI-H522 = test: Anticancer activity against human NCI-H522 cells by HTS assay
A549 = test: Anticancer activity against human A549 cells by HTS assay
[7] = Anticancer activity against human 292G cells by HTS assay
HOP-62 = test: Anticancer activity against human HOP62 cells by HTS assay
[8] = Anticancer activity against human Calu1 cells by HTS assay; conditions: Calu-1
[9] = Anticancer activity against human H460 cells by HTS assay; conditions: NCI-H460

Row | Compound | IC50 (NCI-H1792) [µM] | IC50 [1] [µM] | IC50 (M14) [µM] | IC50 [2] [µM] | IC50 [3] [µM] | IC50 (HeLa) [µM] | IC50 [4] [µM] | IC50 (NCI-H157) [µM] | IC50 [5] [µM] | IC50 [6] [µM] | IC50 (NCI-H522) [µM] | IC50 (A549) [µM] | IC50 [7] [µM] | IC50 (HOP-62) [µM] | IC50 [8] [µM] | IC50 [9] [µM]
1 | CCCOc1cc(O)c2c(=O)c(OCCC)c(-c3ccc(O)c(O)c3)oc2c1 | 30.6 | > 50 | > 50 | > 50 | 34.5 | 47 | > 50 | 40.9 | > 50 | > 50 | > 50 | 26.2 | > 50 | 47.2 | 31.9 | 31.1
2 | COc1c(-c2ccc(O)c(O)c2)oc2cc(O)cc(O)c2c1=O [3-O-METHYLQUERCETIN] | 24.1 | 38.6 | > 50 | > 50 | 13.9 | 6.09 | 46.8 | 18.7 | > 50 | 23.6 | > 50 | 8.14 | 49.5 | 35.5 | > 50 | 9.91
3 | CCCCOc1cc(O)c2c(=O)c(O)c(-c3ccc(OCCCC)c(O)c3)oc2c1 | 3.09 | 6.29 | 9.35 | 15.9 | 4.39 | 0.87 | 4.54 | 0.39 | 2.36 | 0.56 | 35.6 | 2.06 | 17.7 | 4.43 | 6.21 | 3.16

Now from value to compound:

Row | IC50 (NCI-H1792) [µM] | IC50 [1] [µM] | IC50 (M14) [µM] | IC50 [2] [µM] | IC50 [3] [µM] | IC50 (HeLa) [µM] | IC50 [4] [µM] | IC50 (NCI-H157) [µM] | IC50 [5] [µM] | IC50 [6] [µM] | IC50 (NCI-H522) [µM] | IC50 (A549) [µM] | IC50 [7] [µM] | IC50 (HOP-62) [µM] | IC50 [8] [µM] | IC50 [9] [µM] | Compound
4 | > 50 | > 50 | > 50 | > 50 | > 50 | 6.62 | > 50 | > 50 | > 50 | > 50 | > 50 | 31.5 | > 50 | > 50 | > 50 | > 50 | CCCCOc1cc(O)c2c(=O)c(OCCCC)c(-c3ccc(OCCCC)c(O)c3)oc2c1
5 | > 50 | 48.2 | 34 | > 50 | 12 | 12.9 | 22.8 | > 50 | > 50 | 4.75 | > 50 | 18.6 | > 50 | 36 | > 50 | 28.8 | CCCOc1cc(O)c2c(=O)c(OCCC)c(-c3ccc(OCCC)c(O)c3)oc2c1
